Some results are limits rather than exact numbers.

Experiment [1] relates to MDA-MB-231. Particulars: incubation time: 72 h. The procedure, abridged: (§1)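 MDA-MB-231 cells were transfected with siRNA against BRCA1 or with non-targeting control siRNA, and a day later were seeded at 4000 cells per well into 384-well plates containing compounds at 5 concentrations. Plates were kept for 72 h at 37 °C and 5% CO2, after which viability was measured by CellTiter-Blue fluorescence. Logistic dose–response fits in Dotmatics Studies gave the IC50 and the drug sensitivity score, the latter being curve area relative to a reference area and normalised by log of top response.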

Experiment [2] relates to MDA-MB-231. The experiment can be described thus: drug sensitivity score (DSS); higher = more sensitive; extreme values may be limits of the assay. Particulars: incubation time: 72 h. The procedure, abridged:
as §1

The mark [3] stands for this setting: siRNA: siControl (non-targeting).

For the compound `Nc1ccccc1NC(=O)c1ccc(CNC(=O)OCc2cccnc2)cc1` [Entinostat], the “IC50 of cell viability” value in experiment [1] (siRNA: siBRCA1) and in experiment [1] (setting [3]) was above 4.17 µM throughout. For the same compound, the drug sensitivity score in experiment [2] (siRNA: siBRCA1) was found to be 0; in experiment [2] (setting [3]) it was 2.12.
On to `O=c1[nH]c(=O)n([C@H]2C[C@H](O)[C@@H](CO)O2)cc1F` [Floxuridine], for which the “IC50 of cell viability” value was determined as 0.748 µM in experiment [1] (siRNA: siBRCA1) and 0.291 µM in experiment [1] (setting [3]). Besides, the drug sensitivity score in experiment [2] (siRNA: siBRCA1) turned out to be 8.85; in experiment [2] (setting [3]), 11.5.
For `CC(=O)Nc1cccc(-n2c(=O)n(C3CC3)c(=O)c3c(Nc4ccc(I)cc4F)n(C)c(=O)c(C)c32)c1` the same measures were 0.00246 µM, 0.00221 µM, 22 and 22.5.
Turning to `CC[C@]1(O)C[C@H]2CN(CCc3c([nH]c4ccccc34)[C@@](C(=O)OC)(c3cc4c(cc3OC)N(C=O)[C@H]3[C@@](O)(C(=O)OC)[C@H](OC(C)=O)[C@]5(CC)C=CCN6CC[C@]43[C@@H]65)C2)C1` [Vincristine], the “IC50 of cell viability” value was 0.00532 µM in experiment [1] (siRNA: siBRCA1) and 0.00355 µM in experiment [1] (setting [3]). Also, the drug sensitivity score was 31.3 in experiment [2] (siRNA: siBRCA1) and 32.2 in experiment [2] (setting [3]).
For `CN1CCN(c2nc(C3=C(c4c[nH]c5ccccc45)C(=O)NC3=O)c3ccccc3n2)CC1` [Sotrastaurin] the same measures were above 4.17 µM, above 4.17 µM, 0 and 0.
For `NC1(c2ccc(-c3nc4ccn5c(=O)[nH]nc5c4cc3-c3ccccc3)cc2)CCC1` [MK-2206] the same measures were above 4.17 µM, above 4.17 µM, 0 and 0.
In the same order, the values of `CO[C@@]12[C@H](COC(N)=O)C3=C(C(=O)C(C)=C(N)C3=O)N1C[C@@H]1N[C@@H]12` [Mitomycin C] are above 4.17 µM, above 4.17 µM, 0 and 0.
On to `O=C(CCCCCCC(=O)Nc1ccccc1)NO` [Vorinostat], for which the “IC50 of cell viability” value amounted to 2.04 µM in experiment [1] (siRNA: siBRCA1) and 1.13 µM in experiment [1] (setting [3]). Further, the drug sensitivity score in experiment [2] (siRNA: siBRCA1) was 6.81; in experiment [2] (setting [3]) it was 9.94.
For `CC1CCN(C(=O)CC#N)CC1N(C)c1ncnc2[nH]ccc12` (stereo in doubt) [Tasocitinib] the same measures were above 4.17 µM, above 4.17 µM, 0 and 0.
As to `Cc1c(C(=O)Nc2ccc(N3C[C@@H](C)O[C@@H](C)C3)nc2)cccc1-c1ccc(OC(F)(F)F)cc1` [NVP-LDE225], the “IC50 of cell viability” value in experiment [1] (siRNA: siBRCA1) and in experiment [1] (setting [3]) was above 4.17 µM in each case. Besides, the drug sensitivity score in experiment [2] (siRNA: siBRCA1) and in experiment [2] (setting [3]) was 0 each time.
Regarding `Nc1nc(Cl)nc2c1ncn2[C@@H]1O[C@H](CO)[C@@H](O)[C@@H]1F` [Clofarabine], the entries for the “IC50 of cell viability” value in experiment [1] (siRNA: siBRCA1) and in experiment [1] (setting [3]) were 0.0821 µM and 0.0281 µM, respectively. The drug sensitivity score in experiment [2] (siRNA: siBRCA1) came to 8.22; in experiment [2] (setting [3]), 12.5.
In the same order, the values of `CN[C@@H]1C[C@H]2O[C@@](C)([C@@H]1OC)n1c3ccccc3c3c4c(c5c6ccccc6n2c5c31)C(=O)N[C@H]4O` [UCN-01] are 0.0668 µM, 0.0289 µM, 23.4 and 27.8.
For `c1cc(CN2CCCNCCNCCCNCC2)ccc1CN1CCCNCCNCCCNCC1` [Plerixafor], the “IC50 of cell viability” value in experiment [1] (siRNA: siBRCA1) and in experiment [1] (setting [3]) was 2.08 µM in each case. Moreover, the drug sensitivity score in experiment [2] (siRNA: siBRCA1) and in experiment [2] (setting [3]) was 0 throughout.
Turning to `O=C(CCBr)N1CCN(C(=O)CCBr)CC1` [Pipobroman], the “IC50 of cell viability” value in experiment [1] (siRNA: siBRCA1) and in experiment [1] (setting [3]) was above 4.17 µM in each case. The drug sensitivity score was 1.55 in experiment [2] (siRNA: siBRCA1) and 0 in experiment [2] (setting [3]).
As for `Cc1ccc(NC(=O)c2ccc(CN3CCN(C)CC3)cc2)cc1Nc1nc(-c2cccnc2)cs1` [Masitinib], the “IC50 of cell viability” value in experiment [1] (siRNA: siBRCA1) is above 4.17 µM; in experiment [1] (setting [3]), 1.41 µM. The drug sensitivity score was determined as 0.717 in experiment [2] (siRNA: siBRCA1) and 4.31 in experiment [2] (setting [3]).
Consider `CC1(C)NC(=O)N(c2ccc([N+](=O)[O-])c(C(F)(F)F)c2)C1=O` [Nilutamide], for which the “IC50 of cell viability” value in experiment [1] (siRNA: siBRCA1) and in experiment [1] (setting [3]) was above 4.17 µM in each case. Moreover, the drug sensitivity score in experiment [2] (siRNA: siBRCA1) and in experiment [2] (setting [3]) was 0 each time.
